Laboratory results: PubChem BioAssay AID2060898 (Molecular Pharmacology Branch, DTP, NCI, 2025)

Test system: 616215-338-R-J1-PDC complex spheroid viability
Test: Anticancer human tumor 616215-338-R-J1-PDC patient-derived colon adenocarcinoma cell line growth inhibition [RAS]
Settings: for IC50: curve of first compound; for viability, T/C: stronger effect = lower value; active means viability on the fitted dose curve at most 10% of control; inactive means the rest
Summary of the method: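 Multi-cell-type spheroids: tumor cells plus HUVEC endothelial cells and mesenchymal stem cells. RAS-pathway inhibitors were combined with targeted agents, each dosed in half-log steps down from clinical Cmax, or from 10 microM when Cmax was unknown.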

[1] = second compound 0.00316 µM, first compound 0.0316 µM
[2] = second compound 0.00316 µM, first compound 0.1 µM
[3] = second compound 0.01 µM, first compound 0.0316 µM
[4] = second compound 0.01 µM, first compound 0.1 µM
[5] = second compound 0.0316 µM, first compound 0.0316 µM
[6] = second compound 0.0316 µM, first compound 0.1 µM
[7] = second compound 0.1 µM, first compound 0.0316 µM
[8] = second compound 0.1 µM, first compound 0.1 µM
[9] = second compound 0.316 µM, first compound 0.0316 µM
[10] = second compound 0.316 µM, first compound 0.1 µM
[11] = second compound 1 µM, first compound 0.0316 µM
[12] = second compound 1 µM, first compound 0.1 µM
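Further: spheroids exposed to agents for seven days before viability readout.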
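Wherever viability, T/C is given: 100% = DMSO vehicle control viability.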

CC(C)NCC(C(=O)N1CCN(c2ncnc3c2C(C)CC3O)CC1)c1ccc(Cl)cc1 (centres undefined) + C=CC(=O)N1CCN(c2nc(OCC3CCCN3C)nc3c(F)c(-c4nc(N)cc(C)c4C(F)(F)F)c(Cl)cc23)C(C)C1
9.55 µM: IC50 (second compound 1 µM)
> 10 µM: IC50 (second compound 0.0316 µM)
9.08 µM: IC50 (second compound 0.00316 µM)
inactive: viability, T/C [1] 97.1% | viability, T/C [2] 110% | viability, T/C (second compound 0.00316 µM, first compound 0.316 µM) 106% | viability, T/C (second compound 0.00316 µM, first compound 1 µM) 112% | viability, T/C (second compound 0.00316 µM, first compound 3.16 µM) 95% | viability, T/C (second compound 0.00316 µM, first compound 10 µM) 45.9% | viability, T/C [3] 105% | viability, T/C [4] 98.1% | viability, T/C (second compound 0.01 µM, first compound 0.316 µM) 102% | viability, T/C (second compound 0.01 µM, first compound 1 µM) 116% | viability, T/C (second compound 0.01 µM, first compound 3.16 µM) 95.1% | viability, T/C (second compound 0.01 µM, first compound 10 µM) 45.5% | viability, T/C [5] 110% | viability, T/C [6] 114% | viability, T/C (second compound 0.0316 µM, first compound 0.316 µM) 105% | viability, T/C (second compound 0.0316 µM, first compound 1 µM) 115% | viability, T/C (second compound 0.0316 µM, first compound 3.16 µM) 99.9% | viability, T/C (second compound 0.0316 µM, first compound 10 µM) 54% | viability, T/C [7] 111% | viability, T/C [8] 106% | viability, T/C (second compound 0.1 µM, first compound 0.316 µM) 108% | viability, T/C (second compound 0.1 µM, first compound 1 µM) 107% | viability, T/C (second compound 0.1 µM, first compound 3.16 µM) 98.2% | viability, T/C (second compound 0.1 µM, first compound 10 µM) 50% | viability, T/C [9] 103% | viability, T/C [10] 106% | viability, T/C (second compound 0.316 µM, first compound 0.316 µM) 104% | viability, T/C (second compound 0.316 µM, first compound 1 µM) 108% | viability, T/C (second compound 0.316 µM, first compound 3.16 µM) 93.4% | viability, T/C (second compound 0.316 µM, first compound 10 µM) 48.5% | viability, T/C [11] 104% | viability, T/C [12] 94.9% | viability, T/C (second compound 1 µM, first compound 0.316 µM) 103% | viability, T/C (second compound 1 µM, first compound 1 µM) 117% | viability, T/C (second compound 1 µM, first compound 3.16 µM) 104% | viability, T/C (second compound 1 µM, first compound 10 µM) 47.7%
9.74 µM: IC50 (second compound 0.316 µM)
9.02 µM: IC50 (second compound 0.01 µM)
10 µM: IC50 (second compound 0.1 µM)

CC(C)n1nc(-c2ccc3oc(N)nc3c2)c2c(N)ncnc21 + C=CC(=O)N1CCN(c2nc(OCC3CCCN3C)nc3c(F)c(-c4nc(N)cc(C)c4C(F)(F)F)c(Cl)cc23)C(C)C1
inactive: viability, T/C (second compound 0.00316 µM, first compound 0.000316 µM) 107% | viability, T/C (second compound 0.00316 µM, first compound 0.001 µM) 109% | viability, T/C (second compound 0.00316 µM, first compound 0.00316 µM) 99.9% | viability, T/C (second compound 0.00316 µM, first compound 0.01 µM) 119% | viability, T/C [1] 120% | viability, T/C [2] 77.9% | viability, T/C (second compound 0.01 µM, first compound 0.000316 µM) 100% | viability, T/C (second compound 0.01 µM, first compound 0.001 µM) 111% | viability, T/C (second compound 0.01 µM, first compound 0.00316 µM) 107% | viability, T/C (second compound 0.01 µM, first compound 0.01 µM) 119% | viability, T/C [3] 117% | viability, T/C [4] 70.7% | viability, T/C (second compound 0.0316 µM, first compound 0.000316 µM) 105% | viability, T/C (second compound 0.0316 µM, first compound 0.001 µM) 109% | viability, T/C (second compound 0.0316 µM, first compound 0.00316 µM) 113% | viability, T/C (second compound 0.0316 µM, first compound 0.01 µM) 111% | viability, T/C [5] 114% | viability, T/C [6] 71.7% | viability, T/C (second compound 0.1 µM, first compound 0.000316 µM) 110% | viability, T/C (second compound 0.1 µM, first compound 0.001 µM) 100% | viability, T/C (second compound 0.1 µM, first compound 0.00316 µM) 111% | viability, T/C (second compound 0.1 µM, first compound 0.01 µM) 116% | viability, T/C [7] 109% | viability, T/C [8] 72.2% | viability, T/C (second compound 0.316 µM, first compound 0.000316 µM) 109% | viability, T/C (second compound 0.316 µM, first compound 0.001 µM) 108% | viability, T/C (second compound 0.316 µM, first compound 0.00316 µM) 111% | viability, T/C (second compound 0.316 µM, first compound 0.01 µM) 109% | viability, T/C [9] 129% | viability, T/C [10] 71.3% | viability, T/C (second compound 1 µM, first compound 0.000316 µM) 109% | viability, T/C (second compound 1 µM, first compound 0.001 µM) 99.6% | viability, T/C (second compound 1 µM, first compound 0.00316 µM) 118% | viability, T/C (second compound 1 µM, first compound 0.01 µM) 118% | viability, T/C [11] 115% | viability, T/C [12] 70%
> 0.1 µM: IC50 (second compound 0.00316 µM) | IC50 (second compound 0.01 µM) | IC50 (second compound 0.0316 µM) | IC50 (second compound 0.1 µM) | IC50 (second compound 0.316 µM) | IC50 (second compound 1 µM)
